{"source": "patent US20120328526A1", "about": "“Modulation of Nad+ Activity in Neuropathophysiological Conditions and Uses Thereof” (University of Maryland, Baltimore, priority 2011, published 2012)", "key": {"CD38": {"molecular_target": "T1, CD38 (Mus musculus, UniProt P56528)", "T1 construct": "Addition of isolated brain mitochondria into medium containing 1-etheno-NAD (eNAD) results in generation of fluorescent product; from tissue; host or cells: isolated brain mitochondria", "T1 sequence (P56528 1-304)": "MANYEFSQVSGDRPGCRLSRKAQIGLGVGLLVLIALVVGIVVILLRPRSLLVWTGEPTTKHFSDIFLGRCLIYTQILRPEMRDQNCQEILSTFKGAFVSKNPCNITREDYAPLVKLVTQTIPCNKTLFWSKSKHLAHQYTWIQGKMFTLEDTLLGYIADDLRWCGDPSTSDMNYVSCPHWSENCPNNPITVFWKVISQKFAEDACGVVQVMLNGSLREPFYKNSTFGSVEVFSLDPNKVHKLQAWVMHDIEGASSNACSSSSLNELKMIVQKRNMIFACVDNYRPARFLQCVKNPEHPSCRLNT", "assay": "1-etheno-NAD hydrolysis by isolated brain mitochondria", "type": "biochemical", "conditions": "NMN 1 mM", "experimental": "Addition of isolated brain mitochondria into medium containing 1-etheno-NAD (eNAD) results in generation of fluorescent product. This NAD catabolism is inhibited by nicotinamide mononucleotide (1 mM). […] In brain tissue of sham-operated animals the CD38 expression is very low. […] This increase is observed particularly in non-neuronal cells that resemble post-ischemic microglia."}, "[1]": {"test_system": "traumatic brain injury mice", "assay": "Open field test (anti-clockwise/clockwise rotations) after traumatic brain injury", "type": "in vivo, mouse", "conditions": "NMN 500 mg/kg I.P. at 1 hour post-injury; 7 days post-injury; listed as NMN", "experimental": "FIGS. 9A-9B show traumatic brain injury-induced deficits in sensorimotor function and cognition are ameliorated by nicotinamide mononucleotide treatment. FIG. 9A: Fine motor coordination deficits were quantified using a beam walk test in C57Bl/6 mice subjected to moderate-level traumatic brain injury and treated with nicotinamide mononucleotide (500 mg/kg, I.P.) or equal volume of vehicle at 1 hour post-injury. Hindlimb foot placement was recorded up to 7 days post-injury and the number of foot faults recorded from 50 steps. Naïve C57Bl/6 mice served as a control group. […] Analysis was by repeated measures one-way ANOVA, followed by post-hoc adjustments using Student-Newman-Keuls test. Mean ±S.E.M.; n=5/group. FIG. 9B: Cognitive performance was analyzed by measuring the number of anti-clockwise and clockwise rotations of traumatic brain injury mice in an open field test performed at 7 days post-injury.\nThe effect of nicotinamide mononucleotide on traumatic brain injury-induced changes in fine motor coordination examined using a beam walking task in which mice were trained to cross an elevated narrow wooden beam. The mouse was placed on the left end of the beam and the number of foot faults for the right hind limb was recorded over 50 steps on the beam. […] Their activity was measured and recorded using the Any-maze video tracking system. […]"}, "CD38-deficient cells": {"test_system": "CD38-deficient cells", "assay": "Oxygen-glucose deprivation (OGD) in CD38-deficient cell cultures", "type": "cell-based, mouse", "excerpt": "At later recovery periods, tissue NAD(H) decrease since the NAD^+ translocates from mitochondria to the cytosol and is hydrolyzed by the activated NAD^+ glycohydrolases CD38 and PARP1. CD38-dependent overactivation of microglia under diabetic conditions leads to aggravation of ischemic brain damage, astrocytes and neurons prepared from CD38 knockout animals with microglia (9) from wild type or CD38-null animals are co-cultured. The co-cultures are then subjected to OGD and the cell death assessed at 24 h of recovery.\nExposure of cortical astrocytes to OGD plus ISS for 4 h results in significant (>50%) cell death after 24 h of reoxygenation (24) was determined. When cortical neurons are subjected to the same insult for 1 h, a similar level of cell death (40-50%) was observed. Cells cultured under hyperglycemic conditions (30 mM glucose) are more sensitive to the oxygen-glucose deprivation (OGD) insult. The CD38-deficient cells will have elevated basal levels of NAD(H) since the brain NAD(H) levels in CD38-null mice are several-fold higher when compared to wild type mice (6). The protective effect of CD38 knockout in specific cell types will also depend on the oxygen-glucose deprivation-induced loss of mitochondrial NAD(H) that can promote total cellular NAD(H) depletion. […]"}}, "note": "“Also recorded” adds a separate entry of the source.", "data": [{"smiles": "NC(=O)c1ccc[n+]([C@@H]2O[C@H](COP(=O)([O-])O)[C@@H](O)[C@H]2O)c1", "note": "[nicotinamide mononucleotide]", "values": [{"measurement": "NAD catabolism (eNAD fluorescent product) by isolated brain mitochondria", "setting": "CD38", "result": "inhibited"}, {"measurement": "cognitive performance: anti-clockwise rotations in open field test", "setting": "[1]", "result": "virtually indistinguishable from the naïve mice; also recorded: reduced anti-clockwise rotations"}, {"measurement": "protective effect in CD38-deficient cells compared to PARP-1 inhibitors 3-AB or PJ34", "setting": "CD38-deficient cells", "result": "less efficient protective effect"}]}]}
